pIC50: −log10 of the molar value.

What all share (type): cell-based
One experiment relates to DLBCL. Description: SynergyScreen of Pegcrisantaspase or Oncaspar with standard of care agents. The note with it: agent combined with Pegcrisantaspase (FIG. 13A) or Oncaspar (FIG. 13B). An excerpt:
(§1) The special volcano plot of FIG. 9 relates compound sensitivity (as measured by ^10logIC50) to the presence of cancer hotspot mutations. […] The hotspot mutations were derived from statistical analyses of the recurrence patterns of mutations and copy number alterations in patients through separate studies. Axes and statistical analyses are identical to the volcano plot of FIG. 8. The cutoff p-level for significance is 0.32. […] Effect20 For determination of the effect of the compound on the activity of other anti-cancer agents in SynergyScreen™ experiments, a low, fixed concentration is used, corresponding to the concentration at which cell growth is inhibited by 20%. This concentration is determined using the dose-response curves of the single compounds. The concentration is the value on the x-as, corresponding to 80% viability of untreated at the y-axis.
(§2) See the tables depicted in FIG. 13A-FIG. 13B. Grey shading indicates synergistic activity. Light grey shading indicates one experiment and dark grey indicates two experiments. […] Example 5: mPEG-r-crisantaspase conjugates (Pegcrisantaspases) was tested in combination with ABT-737 against HL-60 cell line.

A further experiment relates to DB. In words: Combination (synergy) cell proliferation assay with pegcrisantaspase. The note with it: anti-cancer agent in combination with pegcrisantaspase; DB (DLBCL). Here is the method: (§3) Plate preparation. The stocks of the mixtures and single agents were diluted in DMSO or 0.9% sodium chloride to generate a 7-points dose-response series. After further 31.6 times dilution in 20 mM sterile Hepes buffer pH 7.4 (reference compounds) or medium (pegcrisantaspase), 5 μl of pegcrisantaspase solution, and 5 μl of reference compound was added to 40 μl pre-plated cells in duplicate in a 384-well assay plate. The final DMSO concentration during incubation was 0.4% in all wells.
(§4) Cell proliferation assay. A cell assay stock was thawed and diluted in appropriate medium and dispensed in a 384-well plate, depending on the cell line used, at a concentration of 800-3200 cells per well in […]: i.e., DB: 800 cells per well; RL: 1000 cells per well; MV-4-11: 1600 cells per well; KG-1, HL-60 and HT 3200 cells per well. For each used cell line the cell density was optimized previously. The margins of the plate were filled with phosphate-buffered saline. Plated cells were incubated in a humidified atmosphere of 5% CO2 at 37° C. After 24 hours, 5 μl of pegcrisantaspase solution, and 5 μl of reference compound was added, and plates were further incubated for another 72 hours. After 72 hours, plates were cooled in 30 minutes to room temperature and 25 μl of ATPlite 1Step™ (PerkinElmer) solution was added to each well, and subsequently shaken for 2 minutes. After 5 minutes of incubation in the dark at room temperature, the luminescence was recorded on an Envision multimode reader (PerkinElmer).
(§5) Controls: t=0 signal. On a parallel plate, 40 μl cells were dispensed in quadruplicate and incubated in a humidified atmosphere of 5% CO2 at 37° C. After 24 hours, plates were cooled to room temperature in 30 minutes. 5 μl DMSO-containing Hepes buffer, 5 μl 0.9% sodium chloride-containing medium and 25 μl ATPlite 1Step™ solution were added and subsequently mixed for 2 minutes. Luminescence was measured after 10 minute incubation (=luminescencet=0) in the dark.
(§6) Cell growth control. The cellular doubling times of all cell lines are calculated from the t=0 hours and t=end growth signals of the untreated cells. If the doubling time is out of specification (0.5-2.0 times deviating from historic average) the assay is invalidated.
(§7) Maximum signals. On each 384-well plate, the maximum luminescence was recorded after incubation for 72 hours without compound in the presence of 0.4% DMSO. All equivalent wells (usually 14) were averaged. This average is defined as: luminescenceuntreated,t=72h. Dose response curves. Accurate single agent IC50s are needed for combination analysis. For each single agent its dose-response signal was fitted by a 4-parameter logistics curve using XL-fit 5 (IDBS software):
(§8) luminescence=bottom+(top-bottom)/(1+10^(logIC50−log[cpd])−hill))
(§9) [cpd] is the compound concentration tested. hill is the Hill-coefficient. Bottom and top are the asymptotic minimum and maximum of the curve. Combination Index (CI) determination. The CI is one of the most widely used quantitative indications of synergy. The CI evaluates the concentrations needed to achieve a fixed-effect. A CI of below 1 indicates synergy.
(§10) CI is defined for a certain percentage cell viability (V), which is the signal related to a non-exposed control: V=100%×luminescencetreated,t=72h/luminescenceuntreated,t=72h. The concentrations of the two compounds cpd1 and cpd2 needed to reach a certain percentage cell viability V in combination are then compared to the concentrations needed as single agents:
(§11) IC50,cpd1 would signify the IC50 of cpd1 alone. The CI is labelled by %-effect, to follow conventions, so CI75 signifies the CI at 25% viability Curve shift analysis. This analysis provides a visual confirmation of synergy^1. The concentrations of the mixtures of compounds 1 and 2 (cpd1 and cpd2), and the single agents, were expressed in terms of IC50 equivalents (in ‘units’ of IC50):
(§12) The dose-response signal was fitted by a 4-parameter logistics curve using XL-fit 5 (IDBS software)

Another experiment relates to RL. Described as above. As to conditions: anti-cancer agent in combination with pegcrisantaspase; RL (DLBCL). On the procedure: as §3, §4, §5, §6, §7, §8, §9, §10, §11, §12
The subject of a further experiment is KG-1. Described as above. As to conditions: anti-cancer agent in combination with pegcrisantaspase; KG-1 (AML). On the procedure:
as §3, §4, §5, §6, §7, §8, §9, §10, §11, §12

The next experiment deals with HL-60 cell line. The description is as above. As to conditions: for conclusion (synergy): anti-cancer agent in combination with pegcrisantaspase, HL-60 (AML). On the procedure:
as §3, §4, §5, §6, §7, §8, §9, §10, §11, §12

The subject of a further experiment is HT. The experiment is described as above. As to conditions: anti-cancer agent in combination with pegcrisantaspase; HT (DLBCL). Here is the method: as §3, §4, §5, §6, §7, §8, §9, §10, §11, §12
Another experiment concerns AML. In words: SynergyScreen of Pegcrisantaspase or Oncaspar with standard of care agents. As to conditions: agent combined with Pegcrisantaspase (FIG. 13A) or Oncaspar (FIG. 13B).
Source text: as §1, §2

The next experiment concerns various cell lines. Description: Pegcrisantaspase in combination with other compounds (Example 4, FIG. 2). The note with it: compound in combination with Pegcrisantaspase.

With `C[C@]12C=CC(=O)C=C1CC[C@@H]1[C@@H]2[C@@H](O)C[C@@]2(C)[C@H]1CC[C@]2(O)C(=O)CO` [prednisolone], in the experiment on DLBCL, the “effect in DLBCL when used with Pegcrisantaspase or Oncaspar” value (“effect in DLBCL when used” for short) is “increased effect”. The “conclusion (synergy)” value in the experiment on DB is given as “no synergy (CI = 1.0: no synergy)”; in the experiment on RL, “synergy (CI < 1.0: synergy)”.

As for `CC1(C)CCC(CN2CCN(c3ccc(C(=O)NS(=O)(=O)c4ccc(NCC5CCOCC5)c([N+](=O)[O-])c4)c(Oc4cnc5[nH]ccc5c4)c3)CC2)=C(c2ccc(Cl)cc2)C1` [venetoclax], the “conclusion (synergy)” value is reported as “strong synergy (CI < 0.3: strong synergy)” in the experiment on KG-1; “strong synergy (CI < 0.3: strong synergy)” in the experiment on HL-60 cell line; “synergy (CI < 1.0: synergy)” with DB; “no synergy (CI = 1.0: no synergy)” in the experiment on HT; “synergy (CI < 1.0: synergy)” in the experiment on RL.

Take `Nc1ccn([C@@H]2O[C@H](CO)[C@@H](O)[C@@H]2O)c(=O)n1` [cytarabine]: the “effect in AML when used with Pegcrisantaspase or Oncaspar” value (shortened to “effect in AML when used”) with AML is recorded as “increased effect”. For the same compound, the “potentiation of the effect by Pegcrisantaspase” value in the experiment with various cell lines is listed as “synergy”.

With `Cn1c(=O)n(-c2ccc(C(C)(C)C#N)cc2)c2c3cc(-c4cnc5ccccc5c4)ccc3ncc21` [dactolisib], the “effect in DLBCL when used” value in the experiment on DLBCL is reported as “increased effect”. Further, the “effect in AML when used” value in the experiment with AML was “increased effect”. For the same compound, the “conclusion (synergy)” value with KG-1 is “strong synergy (CI < 0.3: strong synergy)”; in the experiment on HL-60 cell line it was “synergy (CI < 1.0: synergy)”.

With `CC(C)C[C@H](NC(=O)[C@H](CCc1ccccc1)NC(=O)CN1CCOCC1)C(=O)N[C@@H](Cc1ccccc1)C(=O)N[C@@H](CC(C)C)C(=O)[C@@]1(C)CO1` [carfilzomib], in the experiment with DLBCL, the “effect in DLBCL when used” value is given as “increased effect”. The “effect in AML when used” value in the experiment on AML is given as “increased effect”. Also, the “conclusion (synergy)” value is recorded as “synergy (CI < 1.0: synergy)” with KG-1; “antagonism” in the experiment on HL-60 cell line; “synergy (CI < 1.0: synergy)” with DB; “no synergy/antagonism” in the experiment with HT; “synergy (CI < 1.0: synergy)” in the experiment on RL.

As to `CN(C)CC[C@H](CSc1ccccc1)Nc1ccc(S(=O)(=O)NC(=O)c2ccc(N3CCN(Cc4ccccc4-c4ccc(Cl)cc4)CC3)cc2)cc1[N+](=O)[O-]` [ABT-737], in the experiment on DLBCL, the “effect in DLBCL when used” value is on record as “increased effect”. In the experiment on AML, the “effect in AML when used” value is “increased effect”. Besides, the “conclusion (synergy)” value with KG-1 is recorded as “strong synergy (CI < 0.3: strong synergy)”; in the experiment with HL-60 cell line, “strong synergy (CI < 0.3: strong synergy)”; in the experiment on DB it was “synergy (CI < 1.0: synergy)”; with HT it was “synergy (CI < 1.0: synergy)”; in the experiment on RL, “synergy (CI < 1.0: synergy)”. For the same compound, the negative-log IC50 (pIC50) was 6.08 in the experiment with HL-60 cell line (Homo sapiens, single agents, dose-response curves of FIG. 3, HL-60) and 5.92 in the experiment with HL-60 cell line (Homo sapiens, therapeutic as single agent, HL-60, 72 hours). In the experiment on HL-60 cell line (Homo sapiens, single agents, dose-response curves of FIG. 3, HL-60, read-out: maximal effect), the Emax worked out at 67%. For the same compound, in the experiment on various cell lines, the “potentiation of the effect by Pegcrisantaspase” value is “synergy”.

For the origin of these results see patent US20230173042A1, “METHODS OF TREATMENT WITH ASPARAGINASE” (JAZZ PHARMACEUTICALS IRELAND LTD., priority 2017, published 2023).
